The source made the active and inactive calls. The calls are words filed in the database; no cut-off is given here.
How the values were obtained:
[1] = system: MDA-MB-231; assay: Effect on FAK protein expression in human MDA-MB-231 cells at 1 to 4 uM incubated for 72 hrs by Western blot analysis; format: functional, cell-based; details: dose 1-4 µM
[2] = molecular target: T1, Focal adhesion kinase 1 (Homo sapiens, UniProt Q05397); assay: Inhibition of FAK-mediated signaling pathway in human MDA-MB-231 cells assessed as reduction in phosphorylated AKT protein level incubated for 72 hrs by Western blot analysis; format: cell-based; details: dose 1-4 µM
Target sequence in this assay (Q05397 2-1052 limits assumed): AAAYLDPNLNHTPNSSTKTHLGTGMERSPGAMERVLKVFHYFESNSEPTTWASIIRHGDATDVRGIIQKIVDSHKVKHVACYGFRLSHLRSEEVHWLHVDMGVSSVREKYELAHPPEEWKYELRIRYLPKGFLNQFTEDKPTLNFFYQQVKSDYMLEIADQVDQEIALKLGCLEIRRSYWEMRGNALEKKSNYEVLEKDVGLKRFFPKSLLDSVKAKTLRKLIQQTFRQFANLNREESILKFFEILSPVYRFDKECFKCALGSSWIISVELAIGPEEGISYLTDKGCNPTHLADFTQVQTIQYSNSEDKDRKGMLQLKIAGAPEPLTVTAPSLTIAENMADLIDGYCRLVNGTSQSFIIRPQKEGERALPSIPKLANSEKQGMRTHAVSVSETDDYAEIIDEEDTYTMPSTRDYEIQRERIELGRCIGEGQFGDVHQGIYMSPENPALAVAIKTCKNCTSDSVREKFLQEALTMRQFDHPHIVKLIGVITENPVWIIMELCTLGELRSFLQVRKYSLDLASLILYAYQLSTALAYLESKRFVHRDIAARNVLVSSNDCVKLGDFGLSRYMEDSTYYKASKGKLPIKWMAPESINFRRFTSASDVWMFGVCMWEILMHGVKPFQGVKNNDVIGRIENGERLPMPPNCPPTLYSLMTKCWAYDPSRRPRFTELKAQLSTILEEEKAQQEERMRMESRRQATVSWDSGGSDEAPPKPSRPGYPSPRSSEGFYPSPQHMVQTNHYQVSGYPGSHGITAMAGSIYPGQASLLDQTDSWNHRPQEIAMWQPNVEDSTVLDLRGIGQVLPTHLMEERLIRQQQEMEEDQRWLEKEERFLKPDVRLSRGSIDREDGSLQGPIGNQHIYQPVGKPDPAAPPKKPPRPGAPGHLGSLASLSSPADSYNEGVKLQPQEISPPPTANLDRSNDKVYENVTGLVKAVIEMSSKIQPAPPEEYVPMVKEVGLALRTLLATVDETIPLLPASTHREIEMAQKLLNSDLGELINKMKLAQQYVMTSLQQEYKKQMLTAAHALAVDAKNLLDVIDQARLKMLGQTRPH

[3] = molecular target: T1, Focal adhesion kinase 1; assay: Inhibition of FAK-mediated signaling pathway in human MDA-MB-231 cells assessed as reduction in MMP-2 protein level incubated for 72 hrs by Western blot analysis; format: cell-based; details: dose 1-4 µM
Target sequence in this assay (Q05397 2-1052 limits assumed): as above

[4] = system: MDA-MB-231; assay: Antitumor activity against human MDA-MB-231 cells xenografted in po dosed BALB/c nude mouse assessed as reduction in number of lung tumor nodules administered once daily for 30 days; format: functional, organism-based; details: dose 15-30 mg/kg, time 30.0 day
[5] = system: MDA-MB-231; assay: Inhibition of stress fibers formation in human MDA-MB-231 cells assessed as reduction in number of stress fibers at 4 uM incubated for 72 hrs by quantitative analysis; format: functional, cell-based
[6] = system: MDA-MB-231; assay: Inhibition of focal adhesion formation in human MDA-MB-231 cells assessed as reduction in number of focal adhesions at 4 uM incubated for 72 hrs by quantitative analysis; format: functional, cell-based
[7] = system: MDA-MB-231; assay: Inhibition of focal adhesion formation in human MDA-MB-231 cells assessed as reduction in anti-vinculin antibodies fluorescence signal at 4 uM pretreated with carboxy-PTIO for 1 hr followed by compound addition and further incubated for 72 hrs by confocal microscopic analysis; format: functional, cell-based
[8] = system: MDA-MB-231; assay: Induction of apoptosis in human MDA-MB-231 cells assessed as live cells at 4 uM incubated for 72 hrs by Annexin V-FITC/PI staining based flow cytometry analysis (reference value: 97.51%); format: functional
[9] = system: MDA-MB-231; assay: Antiproliferative activity against human MDA-MB-231 cells assessed as inhibition of cell proliferation at 1 uM pretreated with carboxy-PTIO at 5 to 20 uM for 1 hr followed by compound addition and further incubated for 72 hrs by MTT assay; format: functional, cell-based
[10] = molecular target: T1, Focal adhesion kinase 1; assay: Inhibition of FAK autophosphorylation at Y397 residue in human MDA-MB-231 cells incubated for 72 hrs by Western blot analysis; format: cell-based; details: dose 1-4 µM
Target sequence in this assay (Q05397 2-1052 limits assumed): as above

[11] = system: MDA-MB-231; assay: Antiproliferative activity against human MDA-MB-231 cells assessed as inhibition of cell proliferation at 5 uM incubated for 72 hrs by MTT assay relative to control; format: functional
[12] = system: MDA-MB-231; assay: Inhibition of cell invasion in human MDA-MB-231 cells assessed as reduction in number of invasive cells incubated for 48 hrs by crystal violet staining based inverted microscopic analysis; format: functional; details: dose 1-4 µM
[13] = system: MDA-MB-231; assay: Induction of apoptosis in human MDA-MB-231 cells assessed as late apoptotic cells at 1 uM incubated for 72 hrs by Annexin V-FITC/PI staining based flow cytometry analysis (reference value: 0.11%); format: functional
[14] = system: MDA-MB-231; assay: Induction of NO production in human MDA-MB-231 cells incubated for 72 hrs by DAF-FM-DA dye based flow cytometry analysis; format: functional, cell-based; details: dose 1-4 µM
[15] = system: MDA-MB-231; assay: Inhibition of focal adhesion formation in human MDA-MB-231 cells assessed as reduction in anti-vinculin antibodies fluorescence signal at 4 uM incubated for 72 hrs by confocal microscopic analysis; format: functional, cell-based
[16] = system: MDA-MB-157; assay: Antiproliferative activity against human MDA-MB-157 cells assessed as inhibition of cell proliferation incubated for 72 hrs by MTT assay; format: functional, cell-based; details: MDA-MB-157, 72 h
[17] = system: MDA-MB-231; assay: Induction of apoptosis in human MDA-MB-231 cells assessed as early apoptotic cells at 4 uM incubated for 72 hrs by Annexin V-FITC/PI staining based flow cytometry analysis (reference value: 2.16%); format: functional
[18] = molecular target: T1, Focal adhesion kinase 1; assay: Inhibition of FAK (unknown origin)
Target sequence in this assay (Q05397 whole entry): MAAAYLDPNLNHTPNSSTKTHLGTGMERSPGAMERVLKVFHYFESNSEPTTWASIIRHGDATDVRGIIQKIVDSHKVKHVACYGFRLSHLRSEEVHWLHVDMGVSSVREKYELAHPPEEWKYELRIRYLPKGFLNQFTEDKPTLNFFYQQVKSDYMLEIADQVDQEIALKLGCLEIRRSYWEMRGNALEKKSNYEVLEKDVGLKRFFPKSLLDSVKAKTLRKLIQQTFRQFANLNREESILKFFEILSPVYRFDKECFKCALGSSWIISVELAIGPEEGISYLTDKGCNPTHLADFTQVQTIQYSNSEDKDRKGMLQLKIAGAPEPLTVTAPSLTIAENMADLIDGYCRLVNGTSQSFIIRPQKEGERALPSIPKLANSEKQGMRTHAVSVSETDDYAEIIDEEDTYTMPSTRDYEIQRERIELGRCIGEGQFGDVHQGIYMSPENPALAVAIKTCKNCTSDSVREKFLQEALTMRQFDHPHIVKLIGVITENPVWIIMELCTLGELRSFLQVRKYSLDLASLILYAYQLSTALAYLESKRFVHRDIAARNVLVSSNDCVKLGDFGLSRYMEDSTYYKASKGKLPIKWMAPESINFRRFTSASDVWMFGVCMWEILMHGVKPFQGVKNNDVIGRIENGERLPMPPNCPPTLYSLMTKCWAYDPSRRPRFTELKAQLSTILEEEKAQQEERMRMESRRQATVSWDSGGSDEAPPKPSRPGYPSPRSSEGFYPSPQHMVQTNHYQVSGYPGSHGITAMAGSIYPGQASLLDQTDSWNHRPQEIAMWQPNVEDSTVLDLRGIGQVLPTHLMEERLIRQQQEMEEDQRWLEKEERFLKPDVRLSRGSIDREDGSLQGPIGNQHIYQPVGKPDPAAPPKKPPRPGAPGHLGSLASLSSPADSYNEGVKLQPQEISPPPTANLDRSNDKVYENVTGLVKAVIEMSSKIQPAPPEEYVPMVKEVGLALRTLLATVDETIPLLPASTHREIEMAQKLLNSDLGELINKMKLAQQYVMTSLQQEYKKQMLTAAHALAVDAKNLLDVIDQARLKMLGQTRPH

[19] = system: MDA-MB-231; assay: Induction of apoptosis in human MDA-MB-231 cells assessed as dead cells at 4 uM incubated for 72 hrs by Annexin V-FITC/PI staining based flow cytometry analysis (reference value: 0.23%); format: functional
[20] = Cytotoxicity against human MCF-10A cells assessed as inhibition of cell proliferation incubated for 72 hrs by MTT assay; format: toxicity, cell-based
[21] = system: MDA-MB-231; assay: Antimigratory activity in human MDA-MB-231 cells incubated for 48 hrs by scratch wound healing assay; format: functional, cell-based; details: dose 1-4 µM
[22] = system: MDA-MB-231; assay: Induction of apoptosis in human MDA-MB-231 cells assessed as dead cells at 2 uM incubated for 72 hrs by Annexin V-FITC/PI staining based flow cytometry analysis (reference value: 0.23%); format: functional
[23] = molecular target: T1, Focal adhesion kinase 1; assay: Inhibition of FAK-mediated signaling pathway in human MDA-MB-231 cells assessed as reduction in MMP-2 protein level at 4 uM pretreated with carboxy-PTIO followed by compound addition and further incubated for 72 hrs by Western blot analysis; format: cell-based
Target sequence in this assay (Q05397 2-1052 limits assumed): as the sequence (Q05397 2-1052 limits assumed) above

[24] = system: MDA-MB-231; assay: Inhibition of stress fibers formation in human MDA-MB-231 cells assessed as reduction in total area at 4 uM incubated for 72 hrs; format: functional, cell-based
[25] = system: MDA-MB-231; assay: Induction of apoptosis in human MDA-MB-231 cells assessed as dead cells at 1 uM incubated for 72 hrs by Annexin V-FITC/PI staining based flow cytometry analysis (reference value: 0.23%); format: functional
[26] = system: MDA-MB-231; assay: Induction of apoptosis in human MDA-MB-231 cells assessed as live cells at 2 uM incubated for 72 hrs by Annexin V-FITC/PI staining based flow cytometry analysis (reference value: 97.51%); format: functional
[27] = system: MDA-MB-453; assay: Antiproliferative activity against human MDA-MB-453 cells assessed as inhibition of cell proliferation incubated for 72 hrs by MTT assay; format: functional, cell-based; details: MDA-MB-453, 72 h
[28] = Toxicity in BALB/c nude mouse xenografted with human MDA-MB-231 cells assessed as animal death at 50 to 30 mg/kg, po administered once daily for 30 days; format: organism-based; details: in vivo, 720 h, dose 50-30 mg/kg, time 30 day
[29] = system: MDA-MB-231; assay: Induction of apoptosis in human MDA-MB-231 cells assessed as late apoptotic cells at 4 uM incubated for 72 hrs by Annexin V-FITC/PI staining based flow cytometry analysis (reference value: 0.11%); format: functional
[30] = molecular target: T1, Focal adhesion kinase 1; assay: Inhibition of FAK autophosphorylation at Y397 residue in human MDA-MB-231 cells at 4 uM pretreated with carboxy-PTIO followed by compound addition and further incubated for 72 hrs by Western blot analysis; format: cell-based
Target sequence in this assay (Q05397 2-1052 limits assumed): as above

[31] = system: MDA-MB-231; assay: Induction of apoptosis in human MDA-MB-231 cells assessed as early apoptotic cells at 1 uM incubated for 72 hrs by Annexin V-FITC/PI staining based flow cytometry analysis (reference value: 2.16%); format: functional
[32] = Toxicity in BALB/c nude mouse xenografted with human MDA-MB-231 cells assessed as reduction in body weight at 50 to 30 mg/kg, po administered once daily for 30 days and measured every 3 days; format: organism-based; details: in vivo, 720 h, dose 50-30 mg/kg, time 30 day
[33] = system: MDA-MB-231; assay: Inhibition of focal adhesion formation in human MDA-MB-231 cells assessed as reduction in total area at 4 uM incubated for 72 hrs; format: functional, cell-based
[34] = system: MDA-MB-231; assay: Potency index, ratio of TAE226 IC50 to test compound IC50 for antiproliferative activity against human MDA-MB-231 cells assessed as inhibition of cell proliferation incubated for 72 hrs by MTT assay; format: functional
[35] = Selectivity index, ratio of IC50 for human MCF-10A cells to IC50 for human MDA-MB-231 cells; format: toxicity; details: MCF-10A cells versus MDA-MB-231 cells, read-out: Ratio IC50
[36] = molecular target: T1, Focal adhesion kinase 1; assay: Inhibition of FAK-mediated signaling pathway in human MDA-MB-231 cells assessed as reduction in phosphorylated AKT protein level at 4 uM pretreated with carboxy-PTIO followed by compound addition and further incubated for 72 hrs by Western blot analysis; format: cell-based
Target sequence in this assay (Q05397 2-1052 limits assumed): as above

[37] = system: MDA-MB-231; assay: Induction of apoptosis in human MDA-MB-231 cells assessed as live cells at 1 uM incubated for 72 hrs by Annexin V-FITC/PI staining based flow cytometry analysis (reference value: 97.51%); format: functional
[38] = system: MDA-MB-231; assay: Antiproliferative activity against human MDA-MB-231 cells assessed as inhibition of cell proliferation incubated for 72 hrs by MTT assay; format: functional, cell-based; details: MDA-MB-231, 72 h
[39] = system: MDA-MB-231; assay: Induction of apoptosis in human MDA-MB-231 cells assessed as early apoptotic cells at 2 uM incubated for 72 hrs by Annexin V-FITC/PI staining based flow cytometry analysis (reference value: 2.16%); format: functional
[40] = molecular target: T1, Focal adhesion kinase 1; assay: Inhibition of FAK-mediated signaling pathway in human MDA-MB-231 cells assessed as reduction in MMP-9 protein level incubated for 72 hrs by Western blot analysis; format: cell-based; details: dose 1-4 µM
[41] = system: MDA-MB-231; assay: Inhibition of stress fibers formation in human MDA-MB-231 cells assessed as reduction in FITC-conjugated phalloidin fluorescence signal at 4 uM pretreated with carboxy-PTIO for 1 hr followed by compound addition and further incubated for 72 hrs by confocal microscopic analysis; format: functional, cell-based
[42] = system: MDA-MB-231; assay: Inhibition of stress fibers formation in human MDA-MB-231 cells assessed as reduction in FITC-conjugated phalloidin fluorescence signal at 4 uM incubated for 72 hrs by confocal microscopic analysis; format: functional, cell-based
[43] = molecular target: T1, Focal adhesion kinase 1; assay: Inhibition of FAK-mediated signaling pathway in human MDA-MB-231 cells assessed as reduction in MMP-9 protein level at 4 uM pretreated with carboxy-PTIO followed by compound addition and further incubated for 72 hrs by Western blot analysis; format: cell-based
[44] = system: MDA-MB-231; assay: Induction of apoptosis in human MDA-MB-231 cells assessed as late apoptotic cells at 2 uM incubated for 72 hrs by Annexin V-FITC/PI staining based flow cytometry analysis (reference value: 0.11%); format: functional
[45] = system: MDA-MB-231; assay: Antiproliferative activity against human MDA-MB-231 cells assessed as inhibition of cell proliferation at 1 uM incubated for 72 hrs by MTT assay; format: functional, cell-based
[46] = system: MDA-MB-231; assay: Antiproliferative activity against human MDA-MB-231 cells assessed as inhibition of cell proliferation at 5 to 20 uM incubated for 72 hrs by MTT assay; format: functional, cell-based; details: dose 5-20 µM

CNC(=O)c1ccccc1Nc1nc(Nc2ccc(CC(=O)OCCCCCCCCOc3no[n+]([O-])c3S(=O)(=O)c3ccccc3)cc2)ncc1Cl
Activity [1]: inactive
inhibition [2]: Dose-Dependent Effect
inhibition [3]: Dose-Dependent Effect
Activity [4]: Dose-Dependent Effect
inhibition [5]: Active
inhibition [6]: Active
inhibition [7]: inactive
Activity [8]: 26%
Activity [9]: inactive
inhibition [10]: Dose-Dependent Effect
inhibition at 5 µM [11]: > 92%
inhibition [12]: Dose-Dependent Effect
Activity [13]: 6.46%
Activity [14]: Dose-Dependent Effect
inhibition [15]: Active
IC50 [16]: 167 nM
Activity [17]: 56.72%
IC50 [18]: 27.4 nM
Activity [19]: 3.34%
IC50 at 72 h [20]: 2400 nM
Activity [21]: Dose-Dependent Effect
Activity [22]: 1.38%
inhibition [23]: inactive
inhibition [24]: Active
Activity [25]: 3.94%
Activity [26]: 74.91%
IC50 [27]: 159 nM
Activity [28]: Non-Toxic
Activity [29]: 13.94%
inhibition [30]: inactive
Activity [31]: 12.6%
Activity [32]: Non-Toxic
inhibition [33]: Active
Ratio IC50 [34]: ~10
selectivity ratio [35]: 19.1
inhibition [36]: inactive
Activity [37]: 77.01%
IC50 [38]: 126 nM
Activity [39]: 9.88%
inhibition [40]: Dose-Dependent Effect
inhibition [41]: inactive
inhibition [42]: Active
inhibition [43]: inactive
Activity [44]: 13.83%
Activity [45]: Active

CC1(C)N(O)C(c2ccc(C(=O)O)cc2)=[N+]([O-])C1(C)C
Activity [46]: inactive

Source: ChEMBL document CHEMBL5385886, “Design, synthesis and evaluation of nitric oxide releasing derivatives of 2,4-diaminopyrimidine as novel FAK inhibitors for intervention of metastatic triple-negative breast cancer” (Eur J Med Chem, 2023)
